Assay results from PMC10046037, “GABRG2 Variants Associated with Febrile Seizures” (Biomolecules, 2023).

Target: T1, α1β3γ2 GABAA receptor, γ2R215H variant (Homo sapiens, UniProt P14867+P18507+P28472, R215H)
T1 construct: expressed in transfected cells; host or cells: HEK293T
T1 sequence (P14867 28-456): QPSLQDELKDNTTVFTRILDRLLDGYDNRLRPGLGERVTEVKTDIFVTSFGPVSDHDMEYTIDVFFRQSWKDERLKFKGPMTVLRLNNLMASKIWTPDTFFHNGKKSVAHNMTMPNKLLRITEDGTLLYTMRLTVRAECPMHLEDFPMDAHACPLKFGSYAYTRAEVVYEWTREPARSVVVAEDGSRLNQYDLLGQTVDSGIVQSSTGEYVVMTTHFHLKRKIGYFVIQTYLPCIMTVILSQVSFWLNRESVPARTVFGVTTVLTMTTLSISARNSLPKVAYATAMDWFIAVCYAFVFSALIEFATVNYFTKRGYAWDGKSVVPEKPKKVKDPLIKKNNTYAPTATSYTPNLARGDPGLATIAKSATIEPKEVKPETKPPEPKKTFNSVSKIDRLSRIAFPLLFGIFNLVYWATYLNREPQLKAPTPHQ
T1 sequence (P28472 26-473 isoform P28472-2): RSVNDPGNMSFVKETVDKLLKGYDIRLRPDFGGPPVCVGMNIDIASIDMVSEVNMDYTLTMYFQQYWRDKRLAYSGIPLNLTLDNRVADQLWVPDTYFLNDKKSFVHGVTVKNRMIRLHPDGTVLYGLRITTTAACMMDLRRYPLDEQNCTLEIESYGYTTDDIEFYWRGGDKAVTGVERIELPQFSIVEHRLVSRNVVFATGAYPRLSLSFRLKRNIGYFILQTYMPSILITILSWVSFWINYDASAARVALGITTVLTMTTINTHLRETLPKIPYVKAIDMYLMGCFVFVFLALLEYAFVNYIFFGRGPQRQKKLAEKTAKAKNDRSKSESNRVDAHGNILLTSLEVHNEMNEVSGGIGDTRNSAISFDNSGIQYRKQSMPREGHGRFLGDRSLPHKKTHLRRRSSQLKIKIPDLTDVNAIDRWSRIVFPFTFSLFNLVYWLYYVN
T1 sequence (P18507 40-475 R215H): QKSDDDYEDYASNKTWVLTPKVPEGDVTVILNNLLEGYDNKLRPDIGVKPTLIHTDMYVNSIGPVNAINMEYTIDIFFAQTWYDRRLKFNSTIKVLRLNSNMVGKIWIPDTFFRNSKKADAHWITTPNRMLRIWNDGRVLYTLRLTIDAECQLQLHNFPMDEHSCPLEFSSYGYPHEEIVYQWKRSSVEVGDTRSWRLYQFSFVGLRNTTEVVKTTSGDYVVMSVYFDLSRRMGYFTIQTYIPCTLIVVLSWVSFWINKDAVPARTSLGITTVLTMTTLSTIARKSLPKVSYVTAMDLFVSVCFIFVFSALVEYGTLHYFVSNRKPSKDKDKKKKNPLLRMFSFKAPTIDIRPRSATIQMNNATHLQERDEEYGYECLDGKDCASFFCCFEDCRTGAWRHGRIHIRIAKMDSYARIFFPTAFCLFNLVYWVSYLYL
Assay: Automated patch clamp of GABA-elicited currents (SyncroPatch 384PE), γ2R215H
Assay type: cell-based
Conditions: mean
Method: The coding sequences of human α1 (GABRA1, NM_000806), β3 (GABRB3, NM_021912), and γ2 (GABRG2, NM_198904.2) GABAAR subunits were subcloned into the pcDNA3.1 expression vectors (Invitrogen, Waltham, MA, USA).
HEK293T cells (ATCC, CRL-11268) were cultured at 37 °C in a humidified 5% CO2 incubator and maintained in Dulbecco’s modified Eagle’s medium (Invitrogen) supplemented with 10% fetal bovine serum (Life Technologies, Carlsbad, CA, USA), and 100 IU/mL of penicillin/streptomycin (Life Technologies). For the expression experiments, 4 × 10^5 cells were transfected using polyethylenimine (PEI) reagent (40 kD, Polysciences, Warrington, PA, USA) at a DNA: to transfection reagent ratio of 1:2.5 and harvested 36 h after transfection. To express WT and variant α1β3γ2 receptors, a total of 3 µg of α1, β3, and γ2 (WT or mutant) subunit cDNAs were transfected at a ratio of 1:1:1 into 60 mm culture dishes. For the mock-transfected condition, an empty pcDNA3.1 vector was added for a final cDNA transfection amount of 3 μg. For the electrophysiology experiments, 2.5 × 10^5 cells were plated in 100 mm culture dishes and transfected after 24 h with 3 μg of cDNA of each α1, β3, γ2 (wild-type or mutant) subunit, using X-tremeGENE HP DNA transfection Reagent (Roche Diagnostics, Basel, Switzerland), following the manufacturer’s protocol. Recordings were obtained forty-eight hours after transfection.
Whole-cell patch clamp recordings were conducted according to the manufacturer’s standard procedure for the SyncroPatch 384 [31]. […] Using PatchControl 384, electrophysiological parameters, such as seal resistance, capacitance, and series resistance, were determined for each well after the application of a test pulse, and subsequently monitored over time. […] The currents were normalized to the maximal response of each well, and the concentration–response curves were calculated from single-point additions. The EC50 values for each variant or wild-type receptor were calculated across multiple wells for each experimental condition.

IMAX (maximal GABA-evoked peak current) (1 mM GABA for 5 ms, HEK293T): 0.61 nA | IMAX variant/IMAX WT (1 mM GABA): 30.44% | Rise Time (10–90% rise time, 1 mM GABA for 5 ms, HEK293T): 31.68 ms
SMILES: NCCCC(=O)O [GABA, γ-aminobutyric acid]
